Tested on: 521955-158-R7-J2-PDC spheroids, viability % test/control
Assay: Anticancer human tumor 521955-158-R7-J2-PDC patient-derived pancreatic carcinoma cell line growth inhibition [TAK]
Conditions: spheroids with HUVEC and MSC; for IC50: curve of first compound; for viability, T/C: stronger effect = lower value
From the text: Combinatorial screen of targeted agents with TAK-243 and ipatasertib in multi-cell type tumor spheroids
A high-throughput screen of multi-cell type tumor spheroids was designed to identify active combinations of targeted small molecules and TAK-243 or ipatasertib. Complex spheroids include a stromal component modeled by human endothelial cells (HUVEC) and fibroblasts modeled by human mesenchymal stem cells (MSCs). The concentration ranges selected for each drug and investigational agent were based upon clinically achievable concentrations if the clinical Cmax of the agent was known.
Compounds. The drugs and investigational agents: TAK-243 (785004), ipatasertib (767898), everolimus (733504), selumetinib (741078), bortezomib (756655), trametinib (758246), ixazomib (758254), vemurafenib (761431), dabrafenib (764134), sapanisertib (764658), alpelisib (765974), and copanlisib (816437), were obtained from the National Cancer Institute (NCI) Developmental Therapeutics Program Chemical Repository. The FDA-approved anticancer drug set is available from the NCI Developmental Therapeutics Program. […] The stock solutions were prepared in dimethyl sulfoxide (DMSO, Sigma-Aldrich, St. Louis, MO, cat. D2650) at 800-fold the tested concentration and stored at -70 degrees C prior to their use. All drugs and investigational agents were tested over a range starting from a high concentration at or near the clinical Cmax and decreasing in half-log increments. If the clinical Cmax for an agent had not been determined, the highest concentration tested was 10 microM.
NCI60 Cell Culture. NCI60 cell lines were obtained from the NCI Developmental Therapeutics Program Tumor Repository. For each lot of cells, the Repository performed Applied Biosystems AmpFLSTR Identifiler testing with PCR amplification to confirm consistency with the published Identifier STR profile for each cell line. Cells were kept in continuous culture for no more than 20 passages. The optimal seeding densities for each of the cell lines at each time point assessed were determined prior to performing the concentration response studies. Briefly, the NCI60 human tumor lines were grown as monolayers in RPMI 1640 medium supplemented with 10% FBS and 2 mmol/L L-glutamine.
An additional 2 lines were from the NCI60 cell line panel including melanomas, MALME-3M and SK-MEL-2. Pooled donor human umbilical vein endothelial cells (HUVEC, Lonza, cat. CC-2519) and human mesenchymal stem cells (hMSC, Lonza, cat. PT-2501) were purchased from Lonza (Walkersville, MD).
PDMR cell lines were grown in complete medium (DC medium): Dulbecco's modified Eagle's medium (DMEM)/F12 supplemented with 5% fetal bovine serum (FBS), 2 mM L-glutamine, 100 U/mL penicillin and 100 µg/ml streptomycin, 0.4 µg/ml hydrocortisone, 10 ng/ml epidermal growth factor (EGF) recombinant human protein, 24 µg/mL adenine, and 0.1 mg/mL primocin. During culture from frozen stock vials, PDMR cells were cultured in the same medium containing 10 µM Y-27632 (see Table 3). The PDCs were cultured in complete DMEM/F12 media without 10 microM Y-27632 dihydrochloride for at least two passages prior to the screen. The pooled donor HUVEC and hMSC were cultured in endothelial cell growth medium 2 (PromoCell, Heidelberg, Germany, cat. C-22011) and mesenchymal stem cell growth medium 2 (PromoCell, cat. C-28009), respectively. For all experiments, HUVEC and hMSC were used at passages </=5.
For the pre-screen, cell seeding densities were determined from a titration spanning the range from 5,000 to 313 cells per well. The mct-spheroids including 60% malignant cells, 25% HUVEC and 15% MSC dispensed as a mixture into U-bottom Ultra-Low Attachment 384-well plates (Corning, NY)
High-throughput Drug Combination Screening.
Prior to their inoculation into 384-well plates, malignant cells, HUVEC, and hMSC were removed from T flasks using TrypLE express (Thermo Fisher Scientific, cat. 12605036) and harvested by centrifugation for 5 min at 233 x g. […]
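Further: spheroids exposed to compound for 7 days before readout.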

For `COC1CC2CCC(C)C(O)(O2)C(=O)C(=O)N2CCCCC2C(=O)OC(C(C)CC2CCC(OCCO)C(OC)C2)CC(=O)C(C)C=C(C)C(O)C(OC)C(=O)C(C)CC(C)C=CC=CC=C1C` (stereo not given) + CC(C)NCC(C(=O)N1CCN(c2ncnc3c2C(C)CC3O)CC1)c1ccc(Cl)cc1, the IC50 (second compound 0.3 µM) was > 100 nM, the IC50 (second compound 0.949 µM) was > 100 nM and the IC50 (second compound 3 µM) was > 100 nM. For the same compound, the IC50 (second compound 9.49 µM) was > 100 nM, the IC50 (second compound 30 µM) was > 100 nM and the viability, T/C (second compound 0.3 µM, first compound 0.000316 µM) was 103%. The viability, T/C (second compound 0.3 µM, first compound 0.001 µM) was 72.1%, the viability, T/C (second compound 0.3 µM, first compound 0.00316 µM) was 71.6% and the viability, T/C (second compound 0.3 µM, first compound 0.01 µM) was 102%. The viability, T/C (second compound 0.3 µM, first compound 0.0316 µM) was 110%, the viability, T/C (second compound 0.3 µM, first compound 0.1 µM) was 115% and the viability, T/C (second compound 0.949 µM, first compound 0.000316 µM) was 81.6%. The viability, T/C (second compound 0.949 µM, first compound 0.001 µM) was 73.5%, the viability, T/C (second compound 0.949 µM, first compound 0.00316 µM) was 100% and the viability, T/C (second compound 0.949 µM, first compound 0.01 µM) was 91%. The viability, T/C (second compound 0.949 µM, first compound 0.0316 µM) was 111%, the viability, T/C (second compound 0.949 µM, first compound 0.1 µM) was 85.9% and the viability, T/C (second compound 3 µM, first compound 0.000316 µM) was 84.7%. For the same compound, the viability, T/C (second compound 3 µM, first compound 0.001 µM) was 89.1%, the viability, T/C (second compound 3 µM, first compound 0.00316 µM) was 74.7% and the viability, T/C (second compound 3 µM, first compound 0.01 µM) was 89.5%. The viability, T/C (second compound 3 µM, first compound 0.0316 µM) was 104%, the viability, T/C (second compound 3 µM, first compound 0.1 µM) was 93.7% and the viability, T/C (second compound 9.49 µM, first compound 0.000316 µM) was 86.2%. For the same compound, the viability, T/C (second compound 9.49 µM, first compound 0.001 µM) was 86.3%, the viability, T/C (second compound 9.49 µM, first compound 0.00316 µM) was 82.2% and the viability, T/C (second compound 9.49 µM, first compound 0.01 µM) was 85.8%. It also gave a viability, T/C (second compound 9.49 µM, first compound 0.0316 µM) of 106%, a viability, T/C (second compound 9.49 µM, first compound 0.1 µM) of 105% and a viability, T/C (second compound 30 µM, first compound 0.000316 µM) of 90.3%. It also gave a viability, T/C (second compound 30 µM, first compound 0.001 µM) of 108%, a viability, T/C (second compound 30 µM, first compound 0.00316 µM) of 98.2% and a viability, T/C (second compound 30 µM, first compound 0.01 µM) of 106%. The viability, T/C (second compound 30 µM, first compound 0.0316 µM) was 104% and the viability, T/C (second compound 30 µM, first compound 0.1 µM) was 116%.

Compound `Cn1cnc2c(F)c(Nc3ccc(Br)cc3Cl)c(C(=O)NOCCO)cc21` + CC(C)NCC(C(=O)N1CCN(c2ncnc3c2C(C)CC3O)CC1)c1ccc(Cl)cc1 has an IC50 (second compound 0.3 µM) of 108 nM, an IC50 (second compound 0.949 µM) of 65 nM and an IC50 (second compound 3 µM) of 33.9 nM. For the same compound, the IC50 (second compound 9.49 µM) was 19.9 nM, the IC50 (second compound 30 µM) was 17.4 nM and the viability, T/C (second compound 0.3 µM, first compound 0.00949 µM) was 71.3%. The viability, T/C (second compound 0.3 µM, first compound 0.03 µM) was 61.7%, the viability, T/C (second compound 0.3 µM, first compound 0.0949 µM) was 45.6% and the viability, T/C (second compound 0.3 µM, first compound 0.3 µM) was 45.5%. For the same compound, the viability, T/C (second compound 0.3 µM, first compound 0.949 µM) was 28.2%, the viability, T/C (second compound 0.3 µM, first compound 3 µM) was 13.9% and the viability, T/C (second compound 0.949 µM, first compound 0.00949 µM) was 76.7%. It also gave a viability, T/C (second compound 0.949 µM, first compound 0.03 µM) of 55.5%, a viability, T/C (second compound 0.949 µM, first compound 0.0949 µM) of 46.3% and a viability, T/C (second compound 0.949 µM, first compound 0.3 µM) of 31.3%. It also gave a viability, T/C (second compound 0.949 µM, first compound 0.949 µM) of 25.5%, a viability, T/C (second compound 0.949 µM, first compound 3 µM) of 9.79% and a viability, T/C (second compound 3 µM, first compound 0.00949 µM) of 63.9%. The viability, T/C (second compound 3 µM, first compound 0.03 µM) was 54.7%, the viability, T/C (second compound 3 µM, first compound 0.0949 µM) was 32.4% and the viability, T/C (second compound 3 µM, first compound 0.3 µM) was 31.5%. It also gave a viability, T/C (second compound 3 µM, first compound 0.949 µM) of 23.7%, a viability, T/C (second compound 3 µM, first compound 3 µM) of 9.02% and a viability, T/C (second compound 9.49 µM, first compound 0.00949 µM) of 61.8%. The viability, T/C (second compound 9.49 µM, first compound 0.03 µM) was 40.4%, the viability, T/C (second compound 9.49 µM, first compound 0.0949 µM) was 34% and the viability, T/C (second compound 9.49 µM, first compound 0.3 µM) was 27.5%. The viability, T/C (second compound 9.49 µM, first compound 0.949 µM) was 25.7%, the viability, T/C (second compound 9.49 µM, first compound 3 µM) was 10.8% and the viability, T/C (second compound 30 µM, first compound 0.00949 µM) was 56.6%. For the same compound, the viability, T/C (second compound 30 µM, first compound 0.03 µM) was 43.3%, the viability, T/C (second compound 30 µM, first compound 0.0949 µM) was 34.6% and the viability, T/C (second compound 30 µM, first compound 0.3 µM) was 30%. The viability, T/C (second compound 30 µM, first compound 0.949 µM) was 17.6% and the viability, T/C (second compound 30 µM, first compound 3 µM) was 7.96%.
